Patent US11415579B2, “Assay for measuring a rate of reaction between a target and a ligand candidate” (Imperial College Innovations Ltd., priority 2016, dated 2022)

Experiments:
Cdk2(R122C) (C177A) = biological target: T1, Cdk2(R122C) (C177A) (Homo sapiens, UniProt P24941, C177A/R122C); assay: Kinetic thiol consumption assay with Cdk2 mutant R122C; type: binding; design: key to Rate enhancement, Cdk2 R122C: rate constant with Cdk2 ÷ rate constant with model thiol (fold); conditions: additional mutation C177A; for Rate constant with Cdk2 R122C: Protein: Cdk2, cysteine position R122C, in h-1
T1 construct: poly-histidine; made in house; host or cells: E. coli
Summary of the method: (§1)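 Read-out is fluorescence at 380/470 nm, taken after 1 h at room temperature and normalized to a DMSO/thiol-only control over time. Thiol (5 μM Cdk2 mutant or model thiol) was in degassed pH 8 phosphate buffer with 2% v/v TCEP beads. Acrylamide rate constants for Cdk2 were divided by those with model thiol.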

Cdk2(N272C) (C177A) = biological target: T2, Cdk2(N272C) (C177A) (Homo sapiens, UniProt P24941, C177A/N272C); assay: Kinetic thiol consumption assay with Cdk2 mutant N272C; type: binding; design: key to Rate enhancement, Cdk2 N272: rate constant with Cdk2 ÷ rate constant with model thiol (fold); conditions: for Rate enhancement, Cdk2 N272: Cdk2 N272, additional mutation C177A; for Rate constant with Cdk2 N272C: Protein: Cdk2, cysteine position N272C, additional mutation C177A, in h^-1
T2 construct: poly-histidine; made in house; host or cells: E. coli
Summary of the method: as §1

Cdk2(C177A, F80C) = biological target: T3, Cdk2(C177A, F80C) (Homo sapiens, UniProt P24941, C177A/F80C); assay: Kinetic thiol consumption assay with Cdk2 mutant F80C, incl. kobs versus concentration (Kd, k2); type: binding; design: key to Rate enhancement, Cdk2 F80C: Cdk2 rate constant divided by model-thiol rate constant; conditions: additional mutation C177A; for Rate constant with Cdk2 F80C: Protein: Cdk2, cysteine position F80C, in h^-1
T3 construct: poly-histidine; made in house; host or cells: E. coli
Summary of the method: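 His-tagged Cdk2(C177A/F80C) from E. coli or model thiol, 5 μM in degassed phosphate buffer pH 8 with TCEP beads, reacted with acrylamide ligands; fluorescence (ex/em 380/470 nm) normalized to DMSO control and fitted to first-order decay for kobs. Kd and k2 obtained from hyperbolic fit of kobs versus ligand concentration.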

[1] = Kinetic thiol consumption assay with model thiol glutathione; type: physicochemical; design: Rate constant with glutathione (k(GSH)): unit not given here; conditions: for Rate constant with glutathione (k(GSH)): 500 μM ligand, 5 μM thiol, phosphate buffer pH 8; for Rate constant with Glutathione: Protein: Glutathione, cysteine position NA, in h-1
Summary of the method: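 GSH 5 μM, degassed phosphate buffer pH 8, TCEP beads 2% v/v; acrylamide added; RT, 1 h; fluorescence ex/em 380/470 nm; normalized to DMSO/thiol control; k from first-order exponential decay fit.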

[2] = biological target: T4, human cyclin-dependent kinase 2 (Cdk2) (Homo sapiens, UniProt P24941); assay: Kinetic thiol consumption assay with wild type Cdk2 (C177); type: binding; design: key to Rate enhancement, Cdk2 WT: k(Cdk2) divided by k(model thiol); Rate constant with Cdk2 (k(Cdk2)): unit not given here; conditions: for Rate constant with Cdk2 (k(Cdk2)): 500 μM ligand, 5 μM thiol, phosphate buffer pH 8; for Rate enhancement, Cdk2 WT: no additional mutations; for Rate constant with Cdk2 WT: Protein: Cdk2, cysteine position WT, in h^-1; for k(Cdk2)/k(Cdk2_mut) rate enhancement: model thiol Cdk2[C177A, F80C, K278C]; for k(Cdk2)/k(GSH) rate enhancement: model thiol glutathione
T4 construct: poly-histidine; made in house; host or cells: E. coli
Summary of the method: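 Thiol 5 μM (Cdk2 or model thiol), degassed phosphate buffer pH 8, TCEP beads 2% v/v. Plates incubated 1 h RT, ex/em 380/470 nm. First-order decay fit → rate constant; ratio Cdk2/model thiol = rate enhancement.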

Cdk2(S276C) (C177A) = biological target: T5, Cdk2(S276C) (C177A) (Homo sapiens, UniProt P24941, C177A/S276C); assay: Kinetic thiol consumption assay with Cdk2 mutant S276C; type: binding; design: key to Rate enhancement, Cdk2 S276C: rate constant with Cdk2 ÷ rate constant with model thiol (fold); conditions: additional mutation C177A; for Rate constant with Cdk2 S276C: Protein: Cdk2, cysteine position S276C, in h^-1
T5 construct: poly-histidine; made in house; host or cells: E. coli
Summary of the method: as §1

Cdk2(H71C) (C177A) = biological target: T6, Cdk2(H71C) (C177A) (Homo sapiens, UniProt P24941, C177A/H71C); assay: Kinetic thiol consumption assay with Cdk2 mutant H71C; type: binding; design: key to Rate enhancement, Cdk2 H71C: rate constant with Cdk2 ÷ rate constant with model thiol (fold); conditions: additional mutation C177A; for Rate constant with Cdk2 H71C: Protein: Cdk2, cysteine position H71C, in h^-1
T6 construct: poly-histidine; made in house; host or cells: E. coli
Summary of the method: as §1

Cdk2(T182C) (C177A) = biological target: T7, Cdk2(T182C) (C177A) (Homo sapiens, UniProt P24941, C177A/T182C); assay: Kinetic thiol consumption assay with Cdk2 mutant T182C; type: binding; design: key to Rate enhancement, Cdk2 T182C: rate constant with Cdk2 ÷ rate constant with model thiol (fold); conditions: additional mutation C177A; for Rate constant with Cdk2 T182C: Protein: Cdk2, cysteine position T182C, in h^-1
T7 construct: poly-histidine; made in house; host or cells: E. coli
Summary of the method: as §1

Cdk2[C177A, F80C, K278C] = biological target: T8, Cdk2[C177A, F80C, K278C] (Homo sapiens, UniProt P24941, C177A/F80C/K278C); assay: Kinetic thiol consumption assay with mutant Cdk2 as model thiol; type: binding; design: unit not given here; conditions: 500 μM ligand, 5 μM thiol, phosphate buffer pH 8
T8 construct: poly-histidine; made in house; host or cells: E. coli
Summary of the method: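 First-order rate constants were derived by exponential-decay fitting of DMSO/thiol-normalized fluorescence (380/470 nm) over time at room temperature. Thiol was 5 μM E. coli-expressed His-tagged Cdk2 mutant C177A/F80C/K278C in degassed pH 8 phosphate buffer containing 2% v/v TCEP beads.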

Cdk2(S181C) (C177A) = biological target: T9, Cdk2(S181C) (C177A) (Homo sapiens, UniProt P24941, C177A/S181C); assay: Kinetic thiol consumption assay with Cdk2 mutant S181C; type: binding; design: key to Rate enhancement, Cdk2 S181C: rate constant with Cdk2 ÷ rate constant with model thiol (fold); conditions: additional mutation C177A; for Rate constant with Cdk2 S181C: Protein: Cdk2, cysteine position S181C, in h^-1
T9 construct: poly-histidine; made in house; host or cells: E. coli
Summary of the method: as §1

Rate enhancement, Cdk2 R122C (Cdk2(R122C) (C177A)) | Rate constant with Cdk2 R122C (Cdk2(R122C) (C177A)) | Rate enhancement, Cdk2 N272 (Cdk2(N272C) (C177A)) | Rate constant with Cdk2 N272C (Cdk2(N272C) (C177A)) | Rate enhancement, Cdk2 F80C (Cdk2(C177A, F80C)) | Rate constant with Cdk2 (k(Cdk2)) [2] | Rate enhancement, Cdk2 WT [2] | Rate constant with Cdk2 WT [2] | k(Cdk2)/k(Cdk2_mut) rate enhancement [2] | k(Cdk2)/k(GSH) rate enhancement [2] | Rate enhancement, Cdk2 S276C (Cdk2(S276C) (C177A)) | Rate constant with Cdk2 S276C (Cdk2(S276C) (C177A)) | Rate enhancement, Cdk2 H71C (Cdk2(H71C) (C177A)) | Rate enhancement, Cdk2 T182C (Cdk2(T182C) (C177A)) | Rate constant with Cdk2 T182C (Cdk2(T182C) (C177A)) | Rate constant with Cdk2[C177A, F80C, K278C] (k(Cdk2_mut)) (Cdk2[C177A, F80C, K278C]) | Rate enhancement, Cdk2 S181C (Cdk2(S181C) (C177A)) | Rate constant with Cdk2 S181C (Cdk2(S181C) (C177A)) | Compound | Rate constant with glutathione (k(GSH)) [1] | Rate constant with Glutathione [1] | also measured
0.4256 | 0.001824 | 2.921 | 0.01252 | 18.66 | 0.00676 | 3.777 | 0.01619 | 0.356 | 2.66 | 1.648 | 0.007064 | 1.033 | 59.66 | 0.2557 | 0.01899 | 0.8854 | 0.003795 | C=CC(=O)NCCNC(=O)c1ccccc1 [CA216] | 0.00254 | 0.004286 | Rate constant with Cdk2 F80C (Cdk2(C177A, F80C)): 0.07999; Rate constant with Cdk2 H71C (Cdk2(H71C) (C177A)): 0.004427
0.8889 | 0.001809 | 0.7499 | 0.001526 | 0 | 0.00187 | 0.2802 | 0.0005702 | 0.6155 | 1.327 | 1.14 | 0.002319 | 0 | 1.425 | 0.0029 | 0.00304 | 0.6334 | 0.001289 | C=CC(=O)N1CCC2(CC1)CC2C(=O)OC (stereo not shown) [CA-039] | 0.00141 | 0.002035 | –
1.616 | 0.2555 | 3.356 | 0.5306 | 1.581 | 0.1507 | 0.9532 | 0.1507 | 0.2468 | 1.065 | 2.953 | 0.4669 | 5.546 | 2.909 | 0.4599 | 0.6107 | 0.8912 | 0.1409 | C=CC(=O)N(Cc1ccco1)Cc1cc2cc(C)ccc2o1 [CA-178] | 0.1415 | 0.1581 | Rate constant with Cdk2 F80C (Cdk2(C177A, F80C)): 0.2499; Rate constant with Cdk2 H71C (Cdk2(H71C) (C177A)): 0.8769
0.1023 | 0.006071 | 0.3725 | 0.02211 | 0.05133 | 0.02529 | 0.5566 | 0.03304 | 14.75 | 0.9863 | 1.07 | 0.06352 | 0.4092 | 6.607 | 0.3922 | 0.00171 | 0.1273 | 0.007555 | C=CC(=O)NC1(c2noc(C)n2)CCCCCC1 [CA-162] | 0.02564 | 0.05936 | Rate constant with Cdk2 F80C (Cdk2(C177A, F80C)): 0.003047; Rate constant with Cdk2 H71C (Cdk2(H71C) (C177A)): 0.02429
0.7287 | 0.003275 | 0.2125 | 0.0009551 | 0.9911 | 0.00505 | 1.123 | 0.005049 | 0.3625 | 1.651 | 0.7641 | 0.003434 | 0 | 10.72 | 0.04819 | 0.01393 | 0.6985 | 0.003139 | C=CC(=O)Nc1ccc(C23CC4CC(CC(O)(C4)C2)C3)cc1 [CA-194] | 0.00306 | 0.004494 | Rate constant with Cdk2 F80C (Cdk2(C177A, F80C)): 0.004454
0.4622 | 0.02168 | 4.344 | 0.2038 | 1.909 | 0.2034 | 4.336 | 0.2034 | 9.903 | 4.414 | 3.061 | 0.1436 | 3.475 | 16.71 | 0.784 | 0.02054 | 0.5754 | 0.02699 | C=CC(=O)N1CC(CCN2CCCC2=O)c2ccccc21 (stereo not shown) [CA-089] | 0.04608 | 0.04691 | Rate constant with Cdk2 F80C (Cdk2(C177A, F80C)): 0.08953; hit classification, Example 2 ([2]; significant rate enhancement against both model thiols (GSH and mutant Cdk2)): hits; Rate constant with Cdk2 H71C (Cdk2(H71C) (C177A)): 0.163
